Paper PMC4585962, “A peptide factor secreted by Staphylococcus pseudintermedius exhibits properties of both bacteriocins and virulence factors” (Scientific Reports, 2015)
No end group written: not given here. *: point of attachment. For = O=C*

Legend:
Assay in all cases: MIC, microdilution assay
Format in all cases: cell-based
[1] = test system: Bacillus subtilis ATCC 6633; details: broth microdilution (CLSI), MHB, overnight 37 °C, OD 600 nm; mean of three independent measurements
Protocol: (§1) The microbicidal activity of BacSp222 was determined using the microdilution method in compliance with Clinical and Laboratory Standards Institute (CLSI, for bacteria) guidelines M7-A7[57] and in compliance with the European Committee on Antimicrobial Susceptibility Testing - Subcommittee on Antifungal Susceptibility Testing (EUCAST-AFST, for fungi)[58]. Briefly, the microorganisms were cultivated in dedicated liquid media to reach the early exponential phase or, in the case of Streptococcus spp., grown overnight on agar MHB supplemented with 2.5% (v/v) lysed horse blood (LHB). Subsequently, the microorganisms were diluted to 1 × 10^6 CFU/ml (estimated using an Eddy Jet 2 automatic spiral plater, IUL) in MHB; in MHB supplemented with 5% (v/v) LHB (for streptococci); or, in the case of Candida albicans, in RPMI-1640 medium (Thermo) without L-Glu and phenol red, supplemented with 0.6 g/l L-Glu, 34.53 g/l 3-(N-morpholino)propanesulphonic acid and 18 g/l glucose, pH 7.0. Fifty microliters of microorganism suspension were mixed with an equal volume of appropriate medium containing serial 2- or 1.5-fold dilutions of BacSp222. After the cultures were incubated overnight at 37 °C, the optical density (OD) at 600 nm was measured. The minimal inhibitory concentration (MIC), calculated as a mean value from three independent measurements, was defined as the minimum peptide concentration for which an increase in OD was not observed compared to uninoculated broth.

[2] = test system: Escherichia coli K12; details: broth microdilution (CLSI), MHB, overnight 37 °C, OD 600 nm; highest concentration tested 100 μM
Protocol: as §1

[3] = test system: Klebsiella pneumoniae ATCC 13886; details: broth microdilution (CLSI), MHB, overnight 37 °C, OD 600 nm; highest concentration tested 100 μM
Protocol: as §1

[4] = test system: Lactococcus lactis subsp. lactis ŁOCK 0871 strain 239; details: broth microdilution (CLSI), MHB, overnight 37 °C, OD 600 nm; mean of three independent measurements
Protocol: as §1

[5] = test system: Micrococcus luteus ATCC 4698; details: broth microdilution (CLSI), MHB, overnight 37 °C, OD 600 nm; mean of three independent measurements
Protocol: as §1

[6] = test system: Serratia marcescens ATCC 274; details: broth microdilution (CLSI), MHB, overnight 37 °C, OD 600 nm; highest concentration tested 100 μM
Protocol: as §1

[7] = test system: Staphylococcus aureus ATCC 25923; details: broth microdilution (CLSI), MHB, overnight 37 °C, OD 600 nm; mean of three independent measurements
Protocol: as §1

[8] = test system: Staphylococcus aureus DSM 26258 (CH91); details: broth microdilution (CLSI), MHB, overnight 37 °C, OD 600 nm; mean of three independent measurements
Protocol: as §1

[9] = test system: Staphylococcus aureus KB/8658; details: broth microdilution (CLSI), MHB, overnight 37 °C, OD 600 nm; mean of three independent measurements
Protocol: as §1

[10] = test system: Staphylococcus aureus MRSA USA300 strain FPR3757; details: broth microdilution (CLSI), MHB, overnight 37 °C, OD 600 nm; mean of three independent measurements
Protocol: as §1

[11] = test system: Staphylococcus epidermidis ATCC 35547; details: broth microdilution (CLSI), MHB, overnight 37 °C, OD 600 nm; mean of three independent measurements
Protocol: as §1

[12] = test system: Staphylococcus intermedius ATCC 29663; details: broth microdilution (CLSI), MHB, overnight 37 °C, OD 600 nm; mean of three independent measurements
Protocol: as §1

[13] = test system: Staphylococcus intermedius R-2725; details: broth microdilution (CLSI), MHB, overnight 37 °C, OD 600 nm; mean of three independent measurements
Protocol: as §1

[14] = test system: Staphylococcus pseudintermedius 222; details: bacteriocin-producing strain; broth microdilution (CLSI), MHB, overnight 37 °C, OD 600 nm; mean of three independent measurements
Protocol: as §1

[15] = test system: Staphylococcus pseudintermedius LMG 22219; details: nonproducer strain; broth microdilution (CLSI), MHB, overnight 37 °C, OD 600 nm; mean of three independent measurements
Protocol: as §1

[16] = test system: Staphylococcus saprophyticus ATCC 15305; details: broth microdilution (CLSI), MHB, overnight 37 °C, OD 600 nm; mean of three independent measurements
Protocol: as §1

[17] = test system: Streptococcus pyogenes PCM 465; details: broth microdilution (CLSI), MHB with 5% lysed horse blood, overnight 37 °C, OD 600 nm; mean of three independent measurements
Protocol: as §1

[18] = test system: Streptococcus sanguinis PCM 2335; details: broth microdilution (CLSI), MHB with 5% lysed horse blood, overnight 37 °C, OD 600 nm; mean of three independent measurements
Protocol: as §1

For-MAGLLRFLLSKGRALYNWAKSHVGKVWEWLKSGATYEQIKEWIENALGWR [BacSp222]
MIC ± SD [1]: 0.16 ± 0.00 µM | MIC ± SD [2]: >100 µM | MIC ± SD [3]: >100 µM | MIC ± SD [4]: 0.89 ± 0.00 µM | MIC ± SD [5]: 0.11 µM | MIC ± SD [6]: >100 µM | MIC ± SD [7]: 1.00 ± 0.36 µM | MIC ± SD [8]: 0.92 ± 0.23 µM | MIC ± SD [9]: 1.30 ± 0.00 µM | MIC ± SD [10]: 0.89 ± 0.00 µM | MIC ± SD [11]: 4.40 ± 0.00 µM | MIC ± SD [12]: 2.00 ± 0.00 µM | MIC ± SD [13]: 1.20 ± 0.24 µM | MIC ± SD [14]: 2.1 µM | MIC ± SD [15]: 0.16 µM | MIC ± SD [16]: 0.93 ± 0.36 µM | MIC ± SD [17]: 7.8 µM | MIC ± SD [18]: 3.50 ± 0.85 µM
